Laboratory results: DBAASP
In brackets after ≈: the same amount, converted by molar mass. Values belong to the compound of their own block, whether it stands above or below them.

Key:
Assay in all cases: ≥ marks a high value that may be exact or a test limit, other limits are often not marked, values filed in µg/mL are converted to µM
[1] = system: Pseudomonas aeruginosa K799
Listeria monocytogenes = system: Listeria monocytogenes
[2] = system: Enterococcus faecalis ATCC 29212
[3] = system: Staphylococcus aureus ATCC 25923
[4] = system: Salmonella enterica subsp. enterica serovar Typhimurium ATCC 14028s
[5] = system: Staphylococcus epidermidis
Escherichia coli UB1005 = system: Escherichia coli UB1005
[6] = system: Staphylococcus aureus ATCC 33591
[7] = system: Candida albicans ATCC 10231
[8] = system: Cryptococcus neoformans ATCC 32045
[9] = system: Escherichia coli ATCC 2592
[10] = system: Pseudomonas aeruginosa ATCC 10145
[11] = system: Escherichia coli BW25113 ΔsbmA
[12] = system: Pseudomonas aeruginosa ATCC 27853
[13] = system: Acinetobacter baumannii ATCC 19606
[14] = system: Salmonella enterica subsp. enterica serovar Typhimurium ATCC 14028
[15] = system: Escherichia coli ATCC 25922
[16] = system: Klebsiella pneumoniae ATCC 700603
Escherichia coli BW25113 = system: Escherichia coli BW25113
[17] = system: Salmonella typhimurium SL1344
[18] = system: Salmonella enterica subsp. enterica serovar Enteritidis MH91989
Escherichia coli JW0013 = system: Escherichia coli JW0013
Escherichia coli JJ2489 = system: Escherichia coli JJ2489
[19] = system: Escherichia coli JW0368 ΔsbmA
[20] = system: Escherichia coli JW2778 ΔygdD
Escherichia coli MC1041 = system: Escherichia coli MC1041
Escherichia coli J2210 = system: Escherichia coli J2210
[21] = system: Salmonella typhimurium KCTC 1926
[22] = system: Staphylococcus aureus CCARM 3518
[23] = system: Trichosporon beigelii KCTC 7707
[24] = system: Escherichia coli CCARM 1229
[25] = system: Bacillus subtilis KCTC 1998
[26] = system: Pseudomonas aeruginosa 4007
[27] = system: Staphylococcus aureus CCARM 3090
[28] = system: Candida albicans KCTC 7270
[29] = system: Escherichia coli CCARM 1238
[30] = system: Pseudomonas aeruginosa 4891
[31] = system: Listeria monocytogenes KCTC 3710

MIC [6]: ≥ 93.5 µM
MIC [7]: 132 µM (≈ 354 µg/mL)
MIC [8]: 16.7 µM (≈ 44.5 µg/mL)
MIC [9]: ≥ 46.8 µM
MIC [10]: 23.2 µM (≈ 62 µg/mL)
Structure (SMILES): CC(C)C[C@H](NC(=O)[C@H](CCCCN)NC(=O)[C@H](CC(C)C)NC(=O)[C@H](CCCCN)NC(=O)[C@H](CC(C)C)NC(=O)[C@H](CCCCN)NC(=O)[C@H](CC(C)C)NC(=O)[C@H](CCCCN)NC(=O)[C@H](CC(C)C)NC(=O)[C@H](CCCCN)NC(=O)[C@H](CC(C)C)NC(=O)[C@H](CCCCN)NC(=O)[C@H](CC(C)C)NC(=O)[C@H](CCCCN)NC(=O)[C@H](CC(C)C)NC(=O)[C@H](CCCCN)NC(=O)[C@H](CC(C)C)NC(=O)[C@H](CCCCN)NC(=O)[C@H](CC(C)C)NC(=O)[C@H](CCCCN)NC(=O)[C@@H](N)CC(C)C)C(=O)N[C@@H](CCCCN)C(=O)O [LKLKLKLKLKLKLKLKLKLKLK]

MIC [11]: ≥ 64 µM
MIC [3]: > 64 µM
MIC [12]: > 64 µM
MIC [13]: > 64 µM
MIC [14]: > 64 µM
MIC [15]: > 64 µM
MIC [16]: > 64 µM
MIC (Escherichia coli BW25113): ≥ 64 µM
Structure (SMILES): CC[C@H](C)[C@H](NC(=O)[C@@H]1CCCN1)C(=O)N[C@@H](CCCN=C(N)N)C(=O)N[C@@H](CCCN=C(N)N)C(=O)N1CCC[C@H]1C(=O)N1CCC[C@H]1C(=O)N[C@H](C(=O)N[C@@H](CCCN=C(N)N)C(=O)N1CCC[C@H]1C(=O)N1CCC[C@H]1C(=O)N[C@@H](Cc1ccccc1)C(=O)N[C@@H](Cc1ccc(O)cc1)C(=O)N1CCC[C@H]1C(=O)N1CCC[C@H]1C(=O)N[C@@H](Cc1ccccc1)C(=O)N[C@@H](CCCN=C(N)N)C(=O)N1CCC[C@H]1C(=O)N1CCC[C@H]1C(=O)N[C@H](C(=O)N[C@@H](CCCN=C(N)N)C(=O)N1CCC[C@H]1C(=O)O)[C@@H](C)CC)[C@@H](C)CC [PIRRPPIRPPFYPPFRPPIRP]

MIC [11]: ≥ 64 µM
MIC [3]: > 64 µM
MIC [12]: > 64 µM
MIC [13]: > 64 µM
MIC [14]: > 64 µM
MIC [15]: 64 µM (≈ 122 µg/mL)
MIC [16]: > 64 µM
MIC (Escherichia coli BW25113): ≥ 64 µM
Structure (SMILES): CC[C@H](C)[C@H](NC(=O)[C@@H]1CCCN1C(=O)[C@@H]1CCCN1C(=O)[C@H](CCCN=C(N)N)NC(=O)[C@H](Cc1ccccc1)NC(=O)[C@@H](N)CCCN=C(N)N)C(=O)N[C@@H](CCCN=C(N)N)C(=O)N[C@@H](CCCN=C(N)N)C(=O)N1CCC[C@H]1C(=O)N1CCC[C@H]1C(=O)N[C@H](C(=O)N[C@@H](CCCN=C(N)N)C(=O)N1CCC[C@H]1C(=O)N1CCC[C@H]1C(=O)N[C@@H](Cc1ccccc1)C(=O)O)[C@@H](C)CC [RFRPPIRRPPIRPPF]

MIC [17]: 0.12 µM (≈ 0.25 µg/mL)
MIC [18]: 0.12 µM (≈ 0.25 µg/mL)
MIC (Escherichia coli JW0013): 0.06 µM (≈ 0.125 µg/mL)
MIC (Escherichia coli JJ2489): 0.12 µM (≈ 0.25 µg/mL)
MIC [19]: 0.06 µM (≈ 0.125 µg/mL)
MIC (Escherichia coli BW25113): 0.078 µM (≈ 0.162 µg/mL)
MIC [20]: 0.12 µM (≈ 0.25 µg/mL)
MIC (Escherichia coli MC1041): 0.06 µM (≈ 0.125 µg/mL)
MIC (Escherichia coli J2210): 0.157 µM (≈ 0.326 µg/mL)
Structure (SMILES): CC[C@H](C)[C@H](NC(=O)[C@H](CCCN=C(N)N)NC(=O)[C@@H](N)CCCN=C(N)N)C(=O)N[C@@H](CCCCN)C(=O)N[C@@H](CCCCN)C(=O)N[C@@H](CCCN=C(N)N)C(=O)N1CCC[C@H]1C(=O)N1CCC[C@H]1C(=O)N[C@@H](CCCN=C(N)N)C(=O)N[C@@H](CC(C)C)C(=O)N1CCC[C@H]1C(=O)N[C@@H](CCCN=C(N)N)C(=O)N1CCC[C@H]1C(=O)N[C@@H](CCCN=C(N)N)C(=O)N1CCC[C@H]1C(=O)N[C@@H](CCCN=C(N)N)C(=O)O [RRIKKRPPRLPRPRPR]

Second part, the compound before the results:

Structure (SMILES): CC[C@H](C)[C@@H]1NC(=O)[C@H](C(C)C)NC(=O)[C@H](C(C)C)NC(=O)[C@H]([C@@H](C)CC)NC(=O)[C@@H]2CCCN2C(=O)[C@@H](NC(=O)[C@H](CCCCN)NC(=O)[C@@H](N)CCCCN)CSSC[C@@H](C(=O)N[C@@H](CCCCN)C(=O)O)NC(=O)[C@H](C(C)C)NC(=O)[C@H](CCCN=C(N)N)NC1=O [KKCPIVVIRVCK]
MIC [1]: ≥ 46.2 µM
MIC (Listeria monocytogenes): 11.5 µM (≈ 16 µg/mL)
MIC [2]: > 46.2 µM
MIC [3]: > 46.2 µM
MIC [4]: 23.1 µM (≈ 32 µg/mL)
MIC [5]: ≥ 46.2 µM
MIC (Escherichia coli UB1005): 11.5 µM (≈ 16 µg/mL)

Structure (SMILES): CC(C)C[C@H](NC(=O)[C@H](CCCCN)NC(=O)[C@H](CCCCN)NC(=O)[C@H](CC(C)C)NC(=O)[C@H](CC(C)C)NC(=O)[C@H](CCCCN)NC(=O)[C@H](CCCCN)NC(=O)[C@H](CC(C)C)NC(=O)[C@H](CC(C)C)NC(=O)[C@H](CCCCN)NC(=O)[C@H](CCCCN)NC(=O)[C@H](CC(C)C)NC(=O)[C@H](CC(C)C)NC(=O)[C@H](CCCCN)NC(=O)[C@H](CCCCN)NC(=O)[C@H](CC(C)C)NC(=O)[C@H](CC(C)C)NC(=O)[C@H](CCCCN)NC(=O)[C@H](CCCCN)NC(=O)[C@H](CC(C)C)NC(=O)[C@H](CC(C)C)NC(=O)[C@H](CCCCN)NC(=O)[C@H](CCCCN)NC(=O)[C@@H](N)CC(C)C)C(=O)O [LKKLLKKLLKKLLKKLLKKLLKKL]
MIC [6]: ≥ 85.8 µM
MIC [7]: 121 µM (≈ 354 µg/mL)
MIC [8]: ≥ 42.9 µM
MIC [9]: 30.2 µM (≈ 88 µg/mL)
MIC [10]: 22.3 µM (≈ 65 µg/mL)

Structure (SMILES): CC[C@H](C)[C@H](NC(=O)CNC(=O)[C@H](CCC(N)=O)NC(=O)[C@H](Cc1c[nH]c2ccccc12)NC(=O)[C@@H](NC(=O)[C@H](CCCCN)NC(=O)[C@H](CCCCN)NC(=O)[C@H](CC(C)C)NC(=O)[C@H](C)NC(=O)[C@H](CC(N)=O)NC(=O)[C@H](CC(C)C)NC(=O)[C@@H](N)Cc1c[nH]c2ccccc12)C(C)C)C(=O)N[C@@H](Cc1cnc[nH]1)C(=O)N[C@@H](CCC(=O)O)C(=O)N[C@@H](C)C(=O)N[C@H](C(=O)N[C@@H](CCCCN)C(=O)N[C@@H](CC(C)C)C(=O)N[C@H](C(=O)N[C@@H](Cc1c[nH]c2ccccc12)C(=O)N[C@@H](CC(N)=O)C(=O)N[C@@H](Cc1c[nH]c2ccccc12)C(=O)N[C@H](C(=O)N[C@@H](CCC(N)=O)C(N)=O)C(C)C)[C@@H](C)CC)[C@@H](C)CC [WLNALKKVWQGIHEAIKLIWNWVQ]
MIC [21]: 16 µM (≈ 47.6 µg/mL)
MIC [22]: ≥ 32 µM
MIC [23]: ≥ 32 µM
MIC [3]: 32 µM (≈ 95.2 µg/mL)
MIC [24]: ≥ 32 µM
MIC [12]: 16 µM (≈ 47.6 µg/mL)
MIC [25]: ≥ 32 µM
MIC [26]: ≥ 64 µM
MIC [27]: ≥ 32 µM
MIC [28]: ≥ 32 µM
MIC [15]: 16 µM (≈ 47.6 µg/mL)
MIC [29]: ≥ 32 µM
MIC [30]: ≥ 64 µM
MIC [31]: ≥ 32 µM
